Measured values as given in patent US11952364B2, “TRK inhibitors useful as anticancer drugs” (TYLIGAND BIOSCIENCE (SHANGHAI) LIMITED, priority 2018, dated 2024).
Each block holds one compound with its values, some of them ahead of it.

Legend:
BLK = BLK (Homo sapiens (Human), UniProt P51451); assay: KINOMEscan competition binding assay
Method: (§1) The experiment was performed according to the standard kinase activity determination protocol by Eurofins DiscoverX Corporation (11180 Roselle St. Suite D, San Diego, CA, USA, www.discoverX.com). Specifically, the experiment was conducted using the KINOMEscan™ screening platform, which adopts an active site-directed competition binding assay to quantitatively measure the interaction between test compounds and more than hundreds of human kinases and disease-related mutants. The working principle of the screening platform and kinase assay methods are well known in the art, for example, see www.discoverX.com.

CSF1R = CSF1R (Homo sapiens (Human), UniProt P07333); assay: KINOMEscan competition binding assay
Method: as §1

DDR2 = DDR2 (Homo sapiens (Human), UniProt Q16832); assay: KINOMEscan competition binding assay
Method: as §1

FLT3(D835V) = FLT3(D835V) (Homo sapiens (Human), UniProt P36888, D835V); assay: KINOMEscan competition binding assay
Method: as §1

FLT3(N841I) = FLT3(N841I) (Homo sapiens (Human), UniProt P36888, N841I); assay: KINOMEscan competition binding assay
Method: as §1

HIPK4 = HIPK4 (Homo sapiens (Human), UniProt Q8NE63); assay: KINOMEscan competition binding assay
Method: as §1

IKK-beta = IKK-beta (Homo sapiens (Human), UniProt O14920); assay: KINOMEscan competition binding assay
Method: as §1

KIT(L576P) = KIT(L576P) (Homo sapiens (Human), UniProt P10721, L576P); assay: KINOMEscan competition binding assay
Method: as §1

KIT(V559D, T670I) = KIT(V559D, T670I) (Homo sapiens (Human), UniProt P10721, T670I/V559D); assay: KINOMEscan competition binding assay
Method: as §1

LCK = LCK (Homo sapiens (Human), UniProt P06239); assay: KINOMEscan competition binding assay
Method: as §1

MKNK2 = MKNK2 (Homo sapiens (Human), UniProt Q9HBH9); assay: KINOMEscan competition binding assay
Method: as §1

RAF1 = RAF1 (Homo sapiens (Human), UniProt P04049); assay: KINOMEscan competition binding assay
Method: as §1

RET = RET (Homo sapiens (Human), UniProt P07949); assay: KINOMEscan competition binding assay
Method: as §1

ROS1 = ROS1 (Homo sapiens (Human), UniProt P08922); assay: KINOMEscan competition binding assay
Method: as §1

TRKA = TRKA (Homo sapiens (Human), UniProt P04629); assay: KINOMEscan competition binding assay
Method: as §1

FLT3(ITD) = assay: KINOMEscan competition binding assay; set-up: species or system human; details: 2 μM
Method: as §1

[1] = target: kinases listed in Table 10; assay: KINOMEscan kinase panel (kinase profile); format: binding, human
Method: as §1
The experiment was performed according to the standard kinase activity determination protocol by Eurofins DiscoverX Corporation (11180 Roselle St. Suite D, San Diego, CA USA, www.discoverX.com).

P450 1A2 = P450 1A2 (Homo sapiens (Human), UniProt P05177); assay: Cytochrome P450 inhibition in human liver microsomes; format: in vitro ADME
Excerpt: (§2) According to the standard methods conventional in the art for cytochrome P450 enzyme system study, for example those described in Kerns, Edward H. and Di Li (2008). Drug-like Properties: Concepts. Structure Design and Methods: from ADME to Toxicity Optimization. San Diego: Academic Press; Lin, Tong et al., In Vitro Assessment of Cytochrome P450 Inhibition: Strategies for Increasing LC/MS-Based Assay Throughput Using a One-Point IC50 Method and Multiplexing High-Performance Liquid Chromatography; J. Pharm. Sci. 2007, 96(9), 2485.), the inhibitory effect of the compounds of the present disclosure on the cytochrome P450 enzyme system was investigated analogously as follows. The test compounds were evaluated by detecting the metabolism of human liver microsomes for the substrates of different subtypes of Cyp450. The liver microsomes (Sekisui XenoTech, LLC., human liver microsomes, cat. #H0610) were slowly melted on ice, and 0.482 mL of the liver microsome solution (20 mg/mL) was added to 30 mL of 100 mM potassium phosphate solution to prepare a liver microsome working solution with a concentration of 0.316 mg/mL. The test compound and specific inhibitors of different Cyp450 subtypes (as a control) were prepared into 10 mM DMSO solutions, and then 20 μL of the 10 mM DMSO compound solution was added to 180 μL of acetonitrile to obtain a 1 mM compound solution. 2 μL of such 1 mM test compound or inhibitor solution was added to 150 μL of 0.316 mg/mL liver microsome working solution to obtain a 13.16 μM compound working solution. 45.3 mg of NADPH (SIGMA, cat. #V900362) was weighted and added into 13.59 mL of deionized water to prepare a 4 mM NADPH aqueous solution. 0.2 mL of 2 mg/mL internal standard stock solution (dexamethasone in acetonitrile) was added to 1000 mL of acetonitrile (SIGMA, cat. #271004) to prepare a reaction stop solution and stored at 4° C. 150 μL 0.316 mg/mL human liver microsome working solution was added to each well of a 96-well deep plate, and 2 μL of 1 mM specific inhibitor or test compound solution was added to the corresponding wells, and then added to each well 50 μL preheated working solution of each substrate (in 4 mM NADPH solution). After incubating for 5-40 minutes respectively (different enzymes have different incubation times), 200 μL of pre-cooled reaction stop solution was added. All samples were centrifuged at 4000 rpm for 20 minutes. 150 μL of the centrifugal supernatant was then added to a new 96-well deep plate, and added to each well 150 μL of 0.1% formic acid aqueous solution, for analysis by LC/MS/MS (SCI AP4000). The single point IC50 values were calculated according to the following formula. [formula] • (Assuming Hill slope=1) • C0=concentration of test compound and inhibitor solution

P450 2C19 = P450 2C19 (Homo sapiens (Human), UniProt P33261); assay: as above; format: in vitro ADME
Excerpt: as §2

P450 2C9 = P450 2C9 (Homo sapiens (Human), UniProt P11712); assay: as above; format: in vitro ADME
Excerpt: as §2

P450 2D6 = P450 2D6 (Homo sapiens (Human), UniProt P10635); assay: as above; format: in vitro ADME
Excerpt: as §2

P450 2C9, sequence (P11712 whole entry): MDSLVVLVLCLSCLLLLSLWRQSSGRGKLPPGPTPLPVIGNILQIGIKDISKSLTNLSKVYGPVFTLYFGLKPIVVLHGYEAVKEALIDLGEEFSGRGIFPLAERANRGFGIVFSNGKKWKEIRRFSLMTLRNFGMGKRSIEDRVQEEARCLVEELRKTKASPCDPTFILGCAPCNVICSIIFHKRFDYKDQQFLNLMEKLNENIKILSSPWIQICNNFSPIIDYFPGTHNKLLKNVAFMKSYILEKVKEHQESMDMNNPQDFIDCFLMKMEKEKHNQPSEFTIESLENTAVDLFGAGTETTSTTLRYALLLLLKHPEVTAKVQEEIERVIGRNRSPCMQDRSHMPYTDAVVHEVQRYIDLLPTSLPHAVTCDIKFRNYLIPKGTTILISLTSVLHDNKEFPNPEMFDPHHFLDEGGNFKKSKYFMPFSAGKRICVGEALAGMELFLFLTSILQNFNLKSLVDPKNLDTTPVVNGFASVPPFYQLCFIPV
P450 1A2, sequence (P05177 whole entry): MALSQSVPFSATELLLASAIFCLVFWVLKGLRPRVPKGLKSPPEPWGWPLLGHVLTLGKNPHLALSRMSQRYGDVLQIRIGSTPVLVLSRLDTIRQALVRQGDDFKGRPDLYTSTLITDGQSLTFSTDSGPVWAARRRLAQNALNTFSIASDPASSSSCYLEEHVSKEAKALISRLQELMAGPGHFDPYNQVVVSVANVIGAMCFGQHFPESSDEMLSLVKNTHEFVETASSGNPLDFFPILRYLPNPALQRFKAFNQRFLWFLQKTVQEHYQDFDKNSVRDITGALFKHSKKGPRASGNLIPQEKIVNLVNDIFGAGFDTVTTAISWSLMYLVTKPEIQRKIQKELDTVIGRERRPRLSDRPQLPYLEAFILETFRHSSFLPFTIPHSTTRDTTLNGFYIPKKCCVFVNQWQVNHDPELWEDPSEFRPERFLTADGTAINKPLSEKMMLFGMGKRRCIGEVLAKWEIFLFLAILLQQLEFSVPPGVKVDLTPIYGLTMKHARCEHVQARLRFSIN
P450 2D6, sequence (P10635 whole entry): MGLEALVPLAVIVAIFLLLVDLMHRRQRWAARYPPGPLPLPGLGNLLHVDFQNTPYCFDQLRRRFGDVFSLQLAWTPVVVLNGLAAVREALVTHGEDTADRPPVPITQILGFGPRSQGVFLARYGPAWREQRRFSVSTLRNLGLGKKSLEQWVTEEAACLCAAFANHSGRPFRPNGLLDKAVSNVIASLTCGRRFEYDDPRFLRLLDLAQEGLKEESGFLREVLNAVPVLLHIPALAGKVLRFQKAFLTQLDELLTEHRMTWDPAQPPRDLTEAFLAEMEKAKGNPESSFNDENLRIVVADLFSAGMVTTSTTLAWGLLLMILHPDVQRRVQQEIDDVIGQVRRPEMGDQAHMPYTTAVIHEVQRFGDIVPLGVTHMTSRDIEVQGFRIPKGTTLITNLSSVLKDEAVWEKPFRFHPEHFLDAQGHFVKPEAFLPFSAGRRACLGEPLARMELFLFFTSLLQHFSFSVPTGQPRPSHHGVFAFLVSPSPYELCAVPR
P450 2C19, sequence (P33261 whole entry): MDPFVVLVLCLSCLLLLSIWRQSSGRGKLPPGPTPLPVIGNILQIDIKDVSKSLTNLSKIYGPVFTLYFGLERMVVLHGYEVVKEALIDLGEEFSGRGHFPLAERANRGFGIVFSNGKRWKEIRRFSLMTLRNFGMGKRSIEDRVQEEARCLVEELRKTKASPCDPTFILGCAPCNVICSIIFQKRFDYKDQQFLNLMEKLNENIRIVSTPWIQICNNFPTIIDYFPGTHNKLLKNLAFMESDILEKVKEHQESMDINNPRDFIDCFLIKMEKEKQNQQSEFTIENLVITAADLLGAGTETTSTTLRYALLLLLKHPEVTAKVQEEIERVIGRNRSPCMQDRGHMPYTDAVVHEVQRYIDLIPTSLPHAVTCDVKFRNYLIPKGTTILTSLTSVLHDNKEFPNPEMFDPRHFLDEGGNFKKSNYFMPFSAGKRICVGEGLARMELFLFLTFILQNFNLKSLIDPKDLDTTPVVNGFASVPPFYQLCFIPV
CSF1R, sequence (P07333 20-972): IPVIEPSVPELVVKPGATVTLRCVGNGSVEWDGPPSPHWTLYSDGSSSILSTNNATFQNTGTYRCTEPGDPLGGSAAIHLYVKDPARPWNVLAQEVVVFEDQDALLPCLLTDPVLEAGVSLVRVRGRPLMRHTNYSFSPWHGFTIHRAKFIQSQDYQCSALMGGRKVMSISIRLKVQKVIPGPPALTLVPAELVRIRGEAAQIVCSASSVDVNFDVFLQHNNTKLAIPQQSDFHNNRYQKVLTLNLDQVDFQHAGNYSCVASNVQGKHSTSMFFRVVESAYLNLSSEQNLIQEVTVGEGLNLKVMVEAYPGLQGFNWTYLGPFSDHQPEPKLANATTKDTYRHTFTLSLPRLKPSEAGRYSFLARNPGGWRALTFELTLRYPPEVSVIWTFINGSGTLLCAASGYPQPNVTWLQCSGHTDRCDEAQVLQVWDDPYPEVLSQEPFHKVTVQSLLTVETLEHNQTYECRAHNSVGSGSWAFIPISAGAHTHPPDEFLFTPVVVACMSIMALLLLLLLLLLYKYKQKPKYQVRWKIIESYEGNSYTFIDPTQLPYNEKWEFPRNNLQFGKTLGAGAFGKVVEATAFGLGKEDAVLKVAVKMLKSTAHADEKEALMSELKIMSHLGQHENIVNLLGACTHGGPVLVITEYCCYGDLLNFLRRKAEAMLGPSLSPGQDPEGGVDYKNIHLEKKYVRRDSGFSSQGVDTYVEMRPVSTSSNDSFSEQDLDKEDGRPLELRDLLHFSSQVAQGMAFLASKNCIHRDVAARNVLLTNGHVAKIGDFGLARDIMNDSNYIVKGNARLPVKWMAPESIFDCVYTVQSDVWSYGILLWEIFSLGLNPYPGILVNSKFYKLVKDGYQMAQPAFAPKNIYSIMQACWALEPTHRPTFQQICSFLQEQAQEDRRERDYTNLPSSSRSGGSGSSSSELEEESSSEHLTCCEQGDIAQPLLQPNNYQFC
KIT(V559D, T670I), sequence (P10721 26-976 V559D/T670I): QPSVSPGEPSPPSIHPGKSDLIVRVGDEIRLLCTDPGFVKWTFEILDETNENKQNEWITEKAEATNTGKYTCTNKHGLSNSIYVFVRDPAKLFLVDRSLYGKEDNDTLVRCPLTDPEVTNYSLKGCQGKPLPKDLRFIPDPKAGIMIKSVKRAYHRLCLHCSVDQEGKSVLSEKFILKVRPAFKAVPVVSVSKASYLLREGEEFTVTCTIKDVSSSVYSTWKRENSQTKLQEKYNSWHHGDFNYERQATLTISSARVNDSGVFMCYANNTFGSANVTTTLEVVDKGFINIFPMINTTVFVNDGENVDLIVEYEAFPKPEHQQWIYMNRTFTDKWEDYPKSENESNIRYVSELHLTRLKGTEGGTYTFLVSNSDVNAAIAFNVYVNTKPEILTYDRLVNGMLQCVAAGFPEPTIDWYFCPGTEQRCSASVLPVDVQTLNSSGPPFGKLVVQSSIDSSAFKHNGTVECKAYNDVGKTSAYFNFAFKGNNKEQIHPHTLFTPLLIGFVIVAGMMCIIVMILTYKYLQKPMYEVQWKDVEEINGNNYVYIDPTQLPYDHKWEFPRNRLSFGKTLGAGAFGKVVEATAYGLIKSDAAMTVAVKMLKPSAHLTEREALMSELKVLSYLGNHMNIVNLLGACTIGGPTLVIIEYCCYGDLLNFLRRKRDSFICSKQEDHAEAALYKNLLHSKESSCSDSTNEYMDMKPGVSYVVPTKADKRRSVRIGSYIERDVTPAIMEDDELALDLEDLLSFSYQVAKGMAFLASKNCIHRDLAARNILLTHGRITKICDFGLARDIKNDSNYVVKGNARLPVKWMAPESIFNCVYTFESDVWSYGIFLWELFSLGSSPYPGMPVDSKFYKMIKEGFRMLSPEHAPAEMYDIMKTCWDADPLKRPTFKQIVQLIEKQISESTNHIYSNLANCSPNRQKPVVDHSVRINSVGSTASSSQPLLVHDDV
IKK-beta, sequence (O14920 whole entry): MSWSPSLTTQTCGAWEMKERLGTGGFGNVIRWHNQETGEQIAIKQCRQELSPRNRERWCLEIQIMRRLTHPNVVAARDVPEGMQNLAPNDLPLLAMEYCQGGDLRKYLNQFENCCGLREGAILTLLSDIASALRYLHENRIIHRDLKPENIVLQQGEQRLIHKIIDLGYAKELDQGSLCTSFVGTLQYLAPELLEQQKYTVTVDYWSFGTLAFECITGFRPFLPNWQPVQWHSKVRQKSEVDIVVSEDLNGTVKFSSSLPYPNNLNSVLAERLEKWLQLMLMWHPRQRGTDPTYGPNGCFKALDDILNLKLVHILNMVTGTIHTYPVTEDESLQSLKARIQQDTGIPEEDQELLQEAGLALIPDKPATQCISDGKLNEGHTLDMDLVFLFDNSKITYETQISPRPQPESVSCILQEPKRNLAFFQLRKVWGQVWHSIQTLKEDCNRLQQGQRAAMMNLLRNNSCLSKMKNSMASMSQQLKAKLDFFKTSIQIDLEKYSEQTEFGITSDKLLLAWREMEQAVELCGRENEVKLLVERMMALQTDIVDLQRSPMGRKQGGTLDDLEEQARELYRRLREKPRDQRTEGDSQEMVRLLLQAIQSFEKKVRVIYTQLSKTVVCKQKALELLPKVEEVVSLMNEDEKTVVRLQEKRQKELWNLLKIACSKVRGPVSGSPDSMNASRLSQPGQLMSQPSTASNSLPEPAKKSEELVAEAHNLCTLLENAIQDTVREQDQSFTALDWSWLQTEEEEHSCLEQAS
KIT(L576P), sequence (P10721 26-976 L576P): as the sequence (P10721 26-976 V559D/T670I) above, with D534V, L551P, I645T counted along it

inhibition at 2 µM (BLK): 95% | inhibition at 2 µM (CSF1R): 100% | inhibition at 2 µM (DDR2): 100% | inhibition at 2 µM (FLT3(D835V)): 93% | inhibition at 2 µM (FLT3(N841I)): 100% | inhibition at 2 µM (HIPK4): 97% | inhibition at 2 µM (IKK-beta): 97% | inhibition at 2 µM (KIT(L576P)): 100% | inhibition at 2 µM (KIT(V559D, T670I)): 99% | inhibition at 2 µM (LCK): 97% | inhibition at 2 µM (MKNK2): 100% | inhibition at 2 µM (RAF1): 92% | inhibition at 2 µM (RET): 97% | inhibition at 2 µM (ROS1): 97% | inhibition at 2 µM (TRKA): 100% | % inhibition (FLT3(ITD)): 98% | inhibitory activity on the kinases listed in Table 10 ([1]; concentration of 2 μM): > 90% | IC50 (P450 1A2): > 10 µM | IC50 (P450 2C19): > 10 µM | IC50 (P450 2C9): 9.8 µM | IC50 (P450 2D6): > 10 µM
Compound: COc1ccc(C(=O)Nc2ccc(Oc3cc4cnn(C)c4cc3-c3cn[nH]c3)c(F)c2)c(=O)n1-c1ccc(F)cc1 [Example 12, N-(3-fluoro-4-(1-methyl-6-(1H-pyrazol-4-yl)-1H-indazol-5-yloxy)phenyl)-1-(4-fluorophenyl)-6-methoxy-2-oxo-1,2-dihydropyridine-3-carboxamide]
kinase activity profile compared with Merestinib ([1]; 2 μM, FIG. 2, kinases with a difference of inhibition rate >20%): significantly different trend in the kinase activity profile | inhibitory activity on 2C9 compared with Merestinib (P450 2C9; statement in words): significantly lower than that of the prior inhibitor Merestinib

IC50 (P450 1A2): > 10 µM | IC50 (P450 2C19): > 10 µM | IC50 (P450 2C9): 4.2 µM | IC50 (P450 2D6): > 10 µM
Compound: Cc1ccc(C(=O)Nc2ccc(Oc3cc4cnn(C)c4cc3-c3cn[nH]c3)c(F)c2)c(=O)n1-c1ccc(F)cc1 [Merestinib, reference compound]
